Our source for the EC50 and Ki values is patent publication US20260125375A1 (Pfizer Inc., priority 2022, published 2026).

One experiment deals with T1, CBL-B (Homo sapiens, UniProt Q13191).
T1 construct: endogenous in cells; host or cells: Jurkat HiBit-IL2 reporter cells, C-CBL knocked out by CRISPR
In words: Jurkat HiBit-IL2 assay (c-CBL KO), reporter cell line expressing CBL-B only. Format: cell-based. The settings on record: geometric mean, read-out: C-CBL KO EC50 (nM) GMean. The method in brief: (§1)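 CRISPR knockout Jurkat HiBit-IL2 reporter cells (20,000/well) were preincubated 1 h with compounds (0.1% DMSO), then stimulated 4 h at 37 °C with anti-CD3 (1 μg/ml) and anti-CD28 (2 μg/ml) final. IL-2 was read by HiBiT lytic luminescence, normalized as fold over antibody-only baseline; EC50 reported as geometric mean.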
(In general: With HiBiT, luminescence reflects the tagged protein that the partner subunit can reach.)

The target in another experiment is T2, CBL-B (residues 36-427) (Homo sapiens, UniProt Q13191).
T2 construct: Purified CBL-B (residues 36-427) and C-CBL (residues 46-435) proteins from baculovirus-infected insect cells; made in house; host or cells: baculovirus-infected insect cells
In words: Ligand Displacement Assay (LDA), HTRF competitive binding against BODIPY-labeled fluorescent tracer, CBL-B. As to conditions: geometric mean of the number of tests, read-out: CBL-B Ki (nM) GMean. The method in brief: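 Insect-cell (baculovirus) protein, N-term AviTag biotinylated via BirA, captured by SA-Tb; BODIPY tracer, KD measured per protein. 3-fold serial dilutions, duplicate, […], 2% DMSO final. Ki (nM) = geomean of runs.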
On the technique in general: In TR-FRET formats the signal depends on donor and acceptor labels being close together.

A further experiment has as its target T3, C-CBL (Homo sapiens, UniProt P22681).
T3 construct: endogenous in cells; host or cells: Jurkat HiBit-IL2 reporter cells, CBL-B knocked out by CRISPR
As to the kind of experiment: Jurkat HiBit-IL2 assay (CBL-B KO), reporter cell line expressing C-CBL only. Format: cell-based. The settings on record: geometric mean, read-out: CBL-B KO EC50 (nM) GMean. In short, it runs like this: as §1

The mark [1] stands for this setting: c-CBL KO (CBL-B only), anti-CD3/anti-CD28 stimulation 4 hours, Table 16a.
Setting [2] is: CBL-B KO (C-CBL only), anti-CD3/anti-CD28 stimulation 4 hours, Table 16a.
[3] abbreviates: C-CBL KO (expressing CBL-B only), Table 16b (further repetition).
[4] abbreviates: CBL-B KO (expressing C-CBL only), Table 16b (further repetition).

The structures appear in SMILES notation. Like-named read-outs stand apart in the source and are kept apart here.

As usually defined, the EC50 is the concentration giving half of the maximal effect. The Ki is a measure of affinity in units of concentration, obtained from inhibition or displacement. Turning to `CC(c1nc(C(F)(F)F)cc2c(-c3cccc(C4(Cc5nncn5C)COC4)c3)n[nH]c12)N1CCOCC1` (single isomer, unassigned) [Example C24, 3-(3-{3-[(4-methyl-4H-1,2,4-triazol-3-yl)methyl]oxetan-3-yl}phenyl)-7-[(1ξ)-1-(morpholin-4-yl)ethyl]-5-(trifluoromethyl)-1H-pyrazolo[3,4-c]pyridine], the EC50 at CBL-B (setting [1]) is 434 nM; on C-CBL (setting [2]), 2970 nM. Also, the Ki on CBL-B (residues 36-427) stood at 28.3 nM.

On to `CC(c1nc(C(F)(F)F)cc2c(-c3cccc(C4(Cc5nncn5C)COC4)c3)n[nH]c12)N1CCCCC1` (single isomer, unassigned) [Example C22, 3-(3-{3-[(4-methyl-4H-1,2,4-triazol-3-yl)methyl]oxetan-3-yl}phenyl)-7-[(1ξ)-1-(piperidin-1-yl)ethyl]-5-(trifluoromethyl)-1H-pyrazolo[3,4-c]pyridine], for which the EC50 is 120 nM at CBL-B (setting [1]) and 942 nM at C-CBL (setting [2]). Further, the inhibitory constant (Ki) on CBL-B (residues 36-427) is 24.1 nM.

For the molecule `C[C@@H](N[C@H]1CCC(F)(F)C1)c1nc(C(F)(F)F)cc2c(-c3cccc(C4(Cc5nncn5C)COC4)c3)n[nH]c12` (single isomer, unassigned) [Example C13], the figures for the EC50 on CBL-B (setting [1]) and on C-CBL (setting [2]) were 16 nM and 63 nM, respectively. In addition, the Ki on CBL-B (residues 36-427) worked out at 2.3 nM.

Regarding `C[C@@H](N[C@H]1C[C@H](O)C1)c1nc(C(F)(F)F)cc2c(-c3cccc([C@H](c4nncn4C)C4CCC4)c3)n[nH]c12` (single isomer, unassigned) [Example C92], the EC50 is 113 nM at CBL-B (setting [3]) and 525 nM on C-CBL (setting [4]). For the same molecule, on CBL-B (residues 36-427), the Ki is 4.4 nM.

On to `C[C@H](N[C@H]1CCC[C@@H]1O)c1nc(C(F)(F)F)cc2c(-c3cccc([C@H](c4nncn4C)C4CCC4)c3)n[nH]c12` (single isomer, unassigned) [Example C47], for which the EC50 was found to be 11 nM on CBL-B (setting [3]), 5 nM on CBL-B (setting [1]), 105 nM on C-CBL (setting [2]) and 76 nM on C-CBL (setting [4]). At CBL-B (residues 36-427), the Ki turned out to be 0.7 nM.

In the case of `Cn1cnnc1[C@@H](c1cccc(-c2n[nH]c3c(CN[C@H]4CCOC4)nc(C(F)(F)F)cc23)c1)C1CCC1` [Example D1, (3S)—N-{[3-{3-[(R)-cyclobutyl(4-methyl-4H-1,2,4-triazol-3-yl)methyl]phenyl}-5-(trifluoromethyl)-1H-pyrazolo[3,4-c]pyridin-7-yl]methyl}oxolan-3-amine], the values for the EC50 at CBL-B (setting [1]) and at C-CBL (setting [2]) were 276 nM and 1890 nM, respectively. On CBL-B (residues 36-427), the Ki was 22.4 nM.

Take `C[C@@H](N[C@H]1CCC(F)(F)C1)c1nc(C(F)(F)F)cc2c(-c3cccc([C@H](c4nncn4C)C4CCC4)c3)n[nH]c12` [Example C9]: the EC50 on CBL-B (setting [3]) worked out at 32 nM; on CBL-B (setting [1]), 32 nM; at C-CBL (setting [2]), 606 nM; at C-CBL (setting [4]), 176 nM. For the same molecule, the Ki on CBL-B (residues 36-427) is 5 nM.

As for `C[C@H](N[C@@H]1CCC(F)(F)C1)c1nc(C(F)(F)F)cc2c(-c3cccc(C4(Cc5nncn5C)COC4)c3)n[nH]c12` (single isomer, unassigned) [Example C17], the EC50 at CBL-B (setting [1]) is 33 nM; on C-CBL (setting [2]), 196 nM. Moreover, the Ki at CBL-B (residues 36-427) came to 4 nM.

For the molecule `C[C@H](N[C@@H]1CCOC1)c1nc(C(F)(F)F)cc2c(-c3cccc([C@H](c4nncn4C)C4CCC4)c3)n[nH]c12` (single isomer, unassigned) [Example D2], the concentration giving a half-maximal response (EC50) was determined as 83 nM on CBL-B (setting [3]), 42 nM at CBL-B (setting [1]), 465 nM on C-CBL (setting [2]) and 425 nM at C-CBL (setting [4]). In addition, on CBL-B (residues 36-427), the Ki is 5.8 nM.

As for `C[C@H](N[C@H]1C[C@@H](F)C1)c1nc(C(F)(F)F)cc2c(-c3cccc([C@H](c4nncn4C)C4CCC4)c3)n[nH]c12` (single isomer, unassigned) [Example C95], the figures for the EC50 at CBL-B (setting [3]) and on C-CBL (setting [4]) were 53 nM and 230 nM, respectively. On CBL-B (residues 36-427), the inhibition constant Ki was 4.7 nM.

Regarding `C[C@H](NC1CC[C@H]1O)c1nc(C(F)(F)F)cc2c(-c3cccc([C@H](c4nncn4C)C4CCC4)c3)n[nH]c12` (single isomer, unassigned) [Example D30], the EC50 at CBL-B (setting [3]) came to 10 nM; at CBL-B (setting [1]), 3 nM; at C-CBL (setting [2]), 43 nM; on C-CBL (setting [4]) it was 52 nM. The inhibition constant Ki on CBL-B (residues 36-427) came out at 0.6 nM.

`CC(c1nc(C(F)(F)F)cc2c(-c3cccc(C4(Cc5nncn5C)COC4)c3)n[nH]c12)N1C[C@@H](F)[C@H](F)C1` (single isomer, unassigned) [Example C25]: the EC50 on CBL-B (setting [1]) was 49 nM; at C-CBL (setting [2]), 252 nM. For the same molecule, the Ki at CBL-B (residues 36-427) is 6.5 nM.

On to `Cn1cnnc1CC1(c2cccc(-c3n[nH]c4c(CN[C@H]5CCC(F)(F)C5)nc(C(F)(F)F)cc34)c2)COC1` [Example C38, (1S)-3,3-difluoro-N-{[3-(3-{3-[(4-methyl-4H-1,2,4-triazol-3-yl)methyl]oxetan-3-yl}phenyl)-5-(trifluoromethyl)-1H-pyrazolo[3,4-c]pyridin-7-yl]methyl}cyclopentan-1-amine], for which the figures for the EC50 on CBL-B (setting [1]) and at C-CBL (setting [2]) were 71 nM and 494 nM, respectively. Further, on CBL-B (residues 36-427), the inhibitory constant (Ki) stood at 6.9 nM.

On to `C[C@H]1CN([C@@H](C)c2nc(C(F)(F)F)cc3c(-c4cccc(C5(Cc6nncn6C)COC5)c4)n[nH]c23)CCO1` (single isomer, unassigned) [Example D11], for which the EC50 turned out to be 143 nM at CBL-B (setting [1]) and 512 nM on C-CBL (setting [2]). Further, on CBL-B (residues 36-427), the Ki turned out to be 7.4 nM.

In the case of `Cn1cnnc1[C@@H](c1cccc(-c2n[nH]c3c(CNC4CCCC4)nc(C(F)(F)F)cc23)c1)C1CCC1` [Example D4], the values for the EC50 at CBL-B (setting [1]) and on C-CBL (setting [2]) were 72 nM and 479 nM, respectively. At CBL-B (residues 36-427), the Ki was 5.1 nM.

With `C[C@H](N[C@H]1CCOC1)c1nc(C(F)(F)F)cc2c(-c3cccc([C@H](c4nncn4C)C4CCC4)c3)n[nH]c12` (single isomer, unassigned) [Example C2], the EC50 was 54 nM at CBL-B (setting [1]) and 641 nM on C-CBL (setting [2]). At CBL-B (residues 36-427), the Ki is 3.9 nM.

For the molecule `Cn1cnnc1[C@@H](c1cccc(-c2n[nH]c3c(CN[C@H]4CCC[C@@H]4O)nc(C(F)(F)F)cc23)c1)C1CCC1` [Example C4, (1S,2S)-2-({[3-{3-[(R)-cyclobutyl(4-methyl-4H-1,2,4-triazol-3-yl)methyl]phenyl}-5-(trifluoromethyl)-1H-pyrazolo[3,4-c]pyridin-7-yl]methyl}amino)cyclopentan-1-ol], the EC50 was 114 nM at CBL-B (setting [1]) and 1050 nM on C-CBL (setting [2]). Moreover, the inhibitory constant (Ki) on CBL-B (residues 36-427) was determined as 3.3 nM.

As to `CC(c1nc(C(F)(F)F)cc2c(-c3cccc(C4(Cc5nncn5C)COC4)c3)n[nH]c12)N1CCC[C@H](C)C1` (single isomer, unassigned) [Example C19], the EC50 is 56 nM at CBL-B (setting [1]) and 439 nM on C-CBL (setting [2]). The Ki at CBL-B (residues 36-427) is 10.8 nM.

As for `C[C@H]1CCCN(Cc2nc(C(F)(F)F)cc3c(-c4cccc([C@H](c5nncn5C)C5CCC5)c4)n[nH]c23)C1` [Example C7, 3-{3-[(R)-cyclobutyl(4-methyl-4H-1,2,4-triazol-3-yl)methyl]phenyl}-7-{[(3S)-3-methylpiperidin-1-yl]methyl}-5-(trifluoromethyl)-1H-pyrazolo[3,4-c]pyridine], the EC50 is 58 nM on CBL-B (setting [1]) and 519 nM on C-CBL (setting [2]). Further, the inhibition constant (Ki) at CBL-B (residues 36-427) amounted to 3.7 nM.
